Measured values published in patent US20260151375A1, “CDK2 INHIBITORS AND METHODS OF USING THE SAME” (Cedilla Therapeutics, Inc., priority 2022, published 2026).
pIC50: −log10 of the molar value. Like-named read-outs stand apart in the source and are kept apart here.

How the values were obtained:
[1] = test system: Kuramochi cells; test: IncuCyte Kuramochi Assay (cell proliferation); assay type: cell-based; settings: Kuramochi cells labeled with mApple-H2B, cell count, read-out: IncuCyte - Kuramochi RB-WT: IC50
Summary of the method: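 GI50 came from dose-response fits of cell-count fold change between 0 and 72 h, normalized to DMSO controls. Counts were fluorescent nuclei from live-cell images over a 10-point, ½ log series starting at 20 μM.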

[2] = molecular target: T1, CDK2/Cyclin E1 (Homo sapiens, UniProt P24941); test: ADPGLO (CDK2/E1-37 C), ADP-Glo Luminescent Kinase Assay; assay type: biochemical; settings: 0.18 nM CDK2/Cyclin E1, 100 μM ATP, Histone H1, 37° C.
T1 construct: purchased 14-475
Protocol: Inhibition of CDK2/Cyclin E1 activity by the presence of small molecules was evaluated using ADP-Glo Luminescent Kinase Assay (Promega). Activated CDK2/Cyclin E1 was incubated with its substrate Histone H1 (SignalChem H10-54N) in the kinase reaction buffer (100 μM ATP, 50 mM HEPES pH 7.5, 10 mM MgCl2, 1 mM EDTA, 2 mM DTT, 0.01% Brij35, 0.5 mg/mL BSA). Luminescence was recorded with an Envision plate reader (PerkinElmer).
Dose titrations of inhibitors in 100% DMSO were combined with 0.36 nM CDK2/Cyclin E1 in reaction buffer. The mixtures were incubated for 60 minutes at 37° C. before the addition of ATP and Histone H1 substrate to initiate the kinase reaction. The final conditions were 0.18 nM CDK2/Cyclin E1, 100 μM ATP, and 1.5 μM Histone H1. The reactions were incubated at 37° C. for 90 minutes before being stopped with the addition of ADP-Glo reagent. This mixture was incubated at room temperature for 60 minutes before Kinase Detection Solution is added to generate luminescence. The stopped reactions were analyzed on an Envision plate reader. The conversion ratios were normalized to yield % activity, plotted against compound concentration, and fit to a four-parameter equation to determine the IC50 for each compound.

[3] = molecular target: T1, CDK2/Cyclin E1; test: Caliper Assay (LabChip EZ Reader mobility shift assay), inhibition of CDK2/Cyclin E1 activity; assay type: biochemical; settings: 2.5 nM CDK2/Cyclin E1(14-475), 100 μM ATP, 30 min preincubation; read-out: Caliper Assay (CDK2/CCNE1): IC50
Summary of the method: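 Compounds were preincubated 30 min with CDK2/Cyclin E1(14-475), then run for 100 min with 2.5 nM enzyme, 100 μM ATP and 1.5 μM 5-FAM-QSPKKG peptide in HEPES pH 7.5 (final). Reactions were EDTA-stopped and substrate-to-product conversion read by mobility shift. IC50 came from a four-parameter fit.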

pIC50 [2] | pIC50 [3] | SMILES | pIC50 ([1]; 72 hours) | pIC50 ([1]; 72 h)
5.30 to 6.30 | 6.00 to 7.00 | CC(c1nc(C2CN(C(=O)c3cnc(O)cn3)CC23CN(C(=O)[C@H]2CC2(F)F)C3)no1)n1ccc(C2CCCC2)n1 (stereo partly drawn) [I-134, (8-(5-(1-(3-cyclopentyl-1H-pyrazol-1-yl)ethyl)-1,2,4-oxadiazol-3-yl)-2-((R)-2,2-difluorocyclopropane-1-carbonyl)-2,6-diazaspiro[3.4]octan-6-yl)(5-hydroxypyrazin-2-yl)methanone] |  | < 5.00
< 4.00 | < 4.00 | O=C(c1nccnc1O)N1CC(c2nnc(C(F)(F)c3ccc(Cl)c(Cl)c3)o2)C2(CN(CC3CCCO3)C2)C1 (stereo not drawn) [I-135] |  | < 5.00
< 4.00 | < 4.00 | O=C(c1[nH]ncc1C(F)(F)F)N1CC(c2nnc(C(F)(F)c3ccc(Cl)c(Cl)c3)o2)C2(CN(CC3CCCO3)C2)C1 (stereo not drawn) [I-136] |  | < 5.00
< 5.00 | 5.00 to 6.00 | COc1cn[nH]c1C(=O)N1CC(c2nnc(C(F)(F)c3ccc(Cl)c(Cl)c3)o2)C2(C1)CN(C(=O)[C@H]1CC1(F)F)C2 (stereo partly drawn) [I-137, (8-(5-((3,4-dichlorophenyl)difluoromethyl)-1,3,4-oxadiazol-2-yl)-2-((R)-2,2-difluorocyclopropane-1-carbonyl)-2,6-diazaspiro[3.4]octan-6-yl)(4-methoxy-1H-pyrazol-5-yl)methanone] |  | < 5.00
< 4.00 | < 5.00 | COc1cc(C(=O)N2CC(c3nnc(C(F)(F)c4ccc(Cl)c(Cl)c4)o3)C3(C2)CN(C(=O)[C@H]2CC2(F)F)C3)[nH]n1 (stereo partly drawn) [I-138] |  | < 5.00
5.30 to 6.30 |  | CC(c1nc(C2CN(C(=O)c3cnn(Cc4ccccc4C(=O)O)c3)CC23CN(C(=O)C2(C(F)(F)F)CC2)C3)no1)n1ccc(C2(C(F)(F)F)CC2)n1 (stereo not drawn) [I-220, 2-((4-(2-(1-(trifluoromethyl)cyclopropane-1-carbonyl)-8-(5-(1-(3-(1-(trifluoromethyl)cyclopropyl)-1H-pyrazol-1-yl)ethyl)-1,2,4-oxadiazol-3-yl)-2,6-diazaspiro[3.4]octane-6-carbonyl)-1H-pyrazol-1-yl)methyl)benzoic acid] |  | < 5.00
5.30 to 6.30 |  | CC1(C)C[C@@H]1C(=O)N1CC2(CN(C(=O)c3cncs3)CC2c2nc3ccc(Oc4ccccc4-c4cncs4)cc3o2)C1 (stereo partly drawn) [I-221, (2-((S)-2,2-dimethylcyclopropane-1-carbonyl)-8-(6-(2-(thiazol-5-yl)phenoxy)benzo[d]oxazol-2-yl)-2,6-diazaspiro[3.4]octan-6-yl)(thiazol-5-yl)methanone] |  | 5.00 to 5.30
< 5.00 |  | COC(=O)c1ccccc1Cn1cc(C(=O)N2CC(c3noc(C(C)n4ccc(C5(C(F)(F)F)CC5)n4)n3)C3(C2)CN(C(=O)C2(C(F)(F)F)CC2)C3)cn1 (stereo not drawn) [I-222] |  | < 5.00
< 5.00 |  | CC(c1nc(C2CN(C(=O)c3cnn(Cc4ccc(C(F)(F)F)cc4)c3)CC23CN(C(=O)C2(C(F)(F)F)CC2)C3)no1)n1ccc(C2(C(F)(F)F)CC2)n1 (stereo not drawn) [I-223, (1-(4-(trifluoromethyl)benzyl)-1H-pyrazol-4-yl)(2-(1-(trifluoromethyl)cyclopropane-1-carbonyl)-8-(5-(1-(3-(1-(trifluoromethyl)cyclopropyl)-1H-pyrazol-1-yl)ethyl)-1,2,4-oxadiazol-3-yl)-2,6-diazaspiro[3.4]octan-6-yl)methanone] |  | 5.00 to 5.30
< 5.00 |  | Cc1nc(C(=O)N2C[C@H](c3noc(C(C)n4ccc(C5CCOCC5)n4)n3)C3(C2)CN(C(=O)C2(C(F)(F)F)CC2)C3)cnc1O (stereo partly drawn) [I-224, (5-hydroxy-6-methylpyrazin-2-yl)((8R)-8-(5-(1-(3-(tetrahydro-2H-pyran-4-yl)-1H-pyrazol-1-yl)ethyl)-1,2,4-oxadiazol-3-yl)-2-(1-(trifluoromethyl)cyclopropanecarbonyl)-2,6-diazaspiro[3.4]octan-6-yl)methanone] |  | < 5.00
5.00 to 5.30 |  | CC(c1nc(C2CN(C(=O)c3cnc(O)c(C(F)(F)F)n3)CC23CN(C(=O)C2(C(F)(F)F)CC2)C3)no1)n1ccc(C2CCOCC2)n1 (stereo not drawn) [I-225, (5-Hydroxy-6-(trifluoromethyl)pyrazin-2-yl)(8-(5-(1-(3-(tetrahydro-2H-pyran-4-yl)-1H-pyrazol-1-yl)ethyl)-1,2,4-oxadiazol-3-yl)-2-(1-(trifluoromethyl)cyclopropane-1-carbonyl)-2,6-diazaspiro[3.4]octan-6-yl)methanone] |  | < 5.00

The next lines start with the molecule.

SMILES | pIC50 [2] | pIC50 [3] | pIC50 ([1]; 72 hours) | pIC50 ([1]; 72 h)
CC(c1nc(C2CN(C(=O)c3cncs3)CC23CN(C(=O)[C@H]2CC2(C)C)C3)no1)n1ccc(C2CCCC2)n1 (single isomer, unassigned) [I-36 2nd] | < 5.00 | 5.00 to 6.00 | < 5.00 | 
CC(c1nc(C2CN(C(=O)c3cncs3)CC23CN(C(=O)[C@H]2CC2(C)C)C3)no1)n1ccc(C2CCCC2)n1 (single isomer, unassigned) [I-36 3rd] | ≥ 6.30 | 7.00 to 8.00 | < 5.00 | 
CC1(C)C[C@@H]1C(=O)N1CC2(CN(C(=O)c3cnccn3)CC2c2nnc(C(F)(F)c3ccc(Cl)c(Cl)c3)o2)C1 (single isomer, unassigned) [I-45 2nd] | < 5.00 | 6.00 to 7.00 | < 5.00 | 
CC1(C)C[C@@H]1C(=O)N1CC2(CN(C(=O)c3cnn(Cc4ccccc4)c3)C[C@H]2c2nnc(Cc3ccc(Cl)c(Cl)c3)o2)C1 [I-15, (1-benzyl-1H-pyrazol-4-yl)((S)-8-(5-(3,4-dichlorobenzyl)-1,3,4-oxadiazol-2-yl)-2-((S)-2,2-dimethylcyclopropane-1-carbonyl)-2,6-diazaspiro[3.4]octan-6-yl)methanone] | 5.30 to 6.30 | 7.00 to 8.00 |  | 5.00 to 5.30
CC1(C)C[C@@H]1C(=O)N1CC2(CN(C(=O)c3cncs3)CC2c2nnc(C(F)(F)c3ccc(Cl)c(Cl)c3)o2)C1 (stereo partly drawn) [I-32] | 5.30 to 6.30 | 6.00 to 7.00 |  | < 5.00
COc1ccc(COc2cncc(C(=O)N3CC(c4nnc(C(F)(F)c5ccc(Cl)c(Cl)c5)o4)C4(C3)CN(C(=O)[C@H]3CC3(F)F)C4)n2)cc1 (stereo partly drawn) [I-125] | < 4.00 | < 4.00 |  | < 5.00
CC(c1nc(C2CN(C(=O)c3cnn(Cc4ccc(C(=O)O)nc4)c3)CC23CN(C(=O)[C@H]2CC2(C)C)C3)no1)n1ccc(C2CCCC2)n1 (stereo partly drawn) [I-126] | < 5.00 | 6.00 to 7.00 |  | < 5.00
CC(c1nc(C2CN(C(=O)c3cnn(Cc4ccc(C(=O)O)cc4)c3)CC23CN(C(=O)[C@H]2CC2(C)C)C3)no1)n1ccc(C2CCCC2)n1 (stereo partly drawn) [I-127] | 5.00 to 5.30 | 6.00 to 7.00 |  | < 5.00
CC(c1nc(C2CN(C(=O)c3nccnc3O)CC23CN(C(=O)[C@H]2CC2(F)F)C3)no1)n1ccc(C2CCCC2)n1 (stereo partly drawn) [I-129] | < 5.00 | < 4.00 |  | < 5.00
CC(c1nc(C2CN(C(=O)c3cnn(Cc4cc(F)c(C(=O)O)c(F)c4)c3)CC23CN(C(=O)[C@H]2CC2(C)C)C3)no1)n1ccc(C2CCCC2)n1 (stereo partly drawn) [I-130, 4-((4-(8-(5-(1-(3-cyclopentyl-1H-pyrazol-1-yl)ethyl)-1,2,4-oxadiazol-3-yl)-2-((S)-2,2-dimethylcyclopropane-1-carbonyl)-2,6-diazaspiro[3.4]octane-6-carbonyl)-1H-pyrazol-1-yl)methyl)-2,6-difluorobenzoic acid] | 5.30 to 6.30 | 7.00 to 8.00 |  | < 5.00
CC(c1nc(C2CN(C(=O)c3cnn(Cc4cccc(C(=O)O)c4)c3)CC23CN(C(=O)[C@H]2CC2(C)C)C3)no1)n1ccc(C2CCCC2)n1 (stereo partly drawn) [I-131] | 5.30 to 6.30 | ≥ 8.00 |  | < 5.00
O=C(c1cnc(O)cn1)N1CC(c2nnc(C(F)(F)c3ccc(C4CCOCC4)cc3)o2)C2(C1)CN(C(=O)[C@H]1CC1(F)F)C2 (stereo partly drawn) [I-132, (8-(5-(difluoro(4-(tetrahydro-2H-pyran-4-yl)phenyl)methyl)-1,3,4-oxadiazol-2-yl)-2-((R)-2,2-difluorocyclopropane-1-carbonyl)-2,6-diazaspiro[3.4]octan-6-yl)(5-hydroxypyrazin-2-yl)methanone] | < 5.00 | 5.00 to 6.00 |  | < 5.00
CC(c1nc(C2CN(C(=O)c3cnn(Cc4ccc(C#N)cc4)c3)CC23CN(C(=O)[C@H]2CC2(C)C)C3)no1)n1ccc(C2CCCC2)n1 (stereo partly drawn) [I-133, 4-((4-(8-(5-(1-(3-cyclopentyl-1H-pyrazol-1-yl)ethyl)-1,2,4-oxadiazol-3-yl)-2-((S)-2,2-dimethylcyclopropane-1-carbonyl)-2,6-diazaspiro[3.4]octane-6-carbonyl)-1H-pyrazol-1-yl)methyl)benzonitrile] | ≥ 6.30 | ≥ 8.00 |  | 5.30 to 6.30
